One data set concerns COX-2. Nature of the data set: Western blot of COX-2 protein in TNF-α/IFN-γ-treated HSEIC. It counts as cell-based, human. As to conditions: for COX-2 protein levels relative to GAPDH: cotreatment experiments (Figures 7-15), single and combined doses given with the value. On the technique in general: A western blot detects proteins with antibodies after separation by electrophoresis.

The subject of data set [1] is human small intestinal epithelial cells (HSEIC). As to conditions: for cell viability (MTT absorbance at 595 nm): vs vehicle control, doses given with the value; for Long-Term Cytotoxicity / Short-Term Cytotoxicity: MTT in HSEIC, N/A = no cytotoxicity seen; for Long-Term Cytotoxicity: doses cytotoxic after long exposure; for Short-Term Cytotoxicity: doses cytotoxic after short exposure; for cytotoxic effects overall (MTT): over all doses and time points tested (24-96 h), or time not stated.

A further data set deals with IL-6. The class given is cell-based, human. The note with it: cotreatment experiments (Figures 7-15), single and combined doses given with the value; vs TNF-α/IFN-γ group.
Data set [2] deals with porcine intestinal epithelial cells. More on the design: method as in PMID 32735667. As to conditions: pretreatment with 100 μM; cited from earlier work.
Data set [3] relates to dextran sulfate sodium-induced colitis. Further details: method as in PMID 34478286. The note with it: 20 mg/kg, consumed orally for 17 days; cited from earlier work.
Setting [4] is: single ligands (Figure 6), vs TNF-α/IFN-γ group, doses given with the value.

Several values for one entry are separate records, joined by “and”; a condition that tells them apart may be missing. Identical values can stand only once. Entries after “also recorded” stand apart in the source; their conditions may differ. Like-named read-outs stand apart in the source and are kept apart here.

As to `COc1cc(/C=C/C(=O)CC(=O)/C=C/c2ccc(O)c(OC)c2)ccc1O` [Cur, curcumin], in the data set on COX-2, the “COX-2 levels decreased by” value was found to be 3.8 ×; the “Most Effective Dose” value worked out at 0.5 µM; the “normalized COX-2 levels (COX-2/GAPDH)” value is “Psi (40 μM), Cur (0.5 μM), and Eug (50 μM) significantly reduced COX-2 levels without cytotoxic effects; also recorded: significantly reduced normalized COX-2 levels at concentrations of 0.5 (p < 0.0001), 2.5 (p < 0.01), 5, and 10 μM”. In data set [1] (48 h exposure), the “cell viability (MTT absorbance at 595 nm)” value (“cell viability” below) was “cytotoxic effects across all doses”. Also, in data set [1] (72 h exposure), the “cell viability” value is on record as “cytotoxic effects across all doses”. In addition, the “cell viability” value in data set [1] (96 h exposure) was “cytotoxic effects across all doses”. For the same compound, in data set [1], the “Long-Term Cytotoxicity” value is at least 1 µM; the “Short-Term Cytotoxicity” value was at least 5 µM; the “cytotoxic effects overall (MTT)” value was “most substantial and severe decreases in cell viability were observed at 20, 40, and 80 μM”. In addition, in data set [1] (listed as Curcumin), the “Long-Term Cytotoxicity” value is at least 1 µM and the “Short-Term Cytotoxicity” value is at least 5 µM.
Regarding `CN(C)CCc1c[nH]c2cccc(OP(=O)(O)O)c12` [Psi, psilocybin], the “Fold Change of COX-2” value in the data set with COX-2 is listed as −3.8 ×. Further, the “Most Effective Dose” value with COX-2 turned out to be 40 µM. In addition, in the data set on COX-2 (vs TNF-α/IFN-γ group), the “COX-2 protein levels relative to GAPDH” value is “effectively reduced COX-2 levels and 40 μM psilocybin all significantly decreased the COX-2 levels”. For the same compound, the “normalized COX-2 levels (COX-2/GAPDH)” value was “Psi (40 μM), Cur (0.5 μM), and Eug (50 μM) significantly reduced COX-2 levels without cytotoxic effects” with COX-2 (setting [4]); “significant reductions in the normalized COX-2 levels across all concentrations tested (5, 10, 20, and 40 μM)” in the data set with COX-2 (single ligands (Figure 6), vs TNF-α/IFN-γ group, doses given with the value, listed as Psilocybin). The “cell viability” value in data set [1] (24 h exposure) is “significantly increased the number of viable cells at doses of 20 (p < 0.001), 40, 80, and 160 μM”; in data set [1] (48 h exposure), “increased the cell viability at 20 (p < 0.01), 40 (p < 0.001), 80, and 160 μM”; in data set [1] (96 h exposure) it was 80 (p < 0.05) and 160 μM (p < 0.0001) of psilocybin for 96 h significantly increased the cell viability. Moreover, the “IL-6 protein levels relative to GAPDH” value with IL-6 is 20 μM psilocybin and 10 μM psilocybin combined with 0.5 μM curcumin showing the most significant reductions and the 10 μM psilocybin treatment group, which significantly upregulated the IL-6 levels.
On to `COc1cc(CNC(=O)CCCC/C=C/C(C)C)ccc1O` [Cap, capsaicin], for which, in the data set on COX-2, the “Fold Change of COX-2” value is on record as −1.6 × and the “Most Effective Dose” value came out at 0.5 µM. Further, the “COX-2 protein levels relative to GAPDH” value with COX-2 (vs TNF-α/IFN-γ group) is “effectively reduced COX-2 levels”. The “normalized COX-2 levels (COX-2/GAPDH)” value in the data set with COX-2 (setting [4]) was “a reduction in COX-2 levels was observed only at a dose of 0.5 μM; also recorded: both 0.1 and 1 μM showed a trend towards decreased normalized COX-2/GAPDH levels”. In data set [1] (24 h exposure), the “cell viability” value is 50 μM after 24 h (p < 0.05), 100 μM after 24 and 48 h (p < 0.05), and 200 μM after 24 h (p < 0.01) and 48 h (p < 0.0001) significantly decreased the cell viability. Moreover, the “cell viability” value in data set [1] (48 h exposure) was 50 μM after 24 h (p < 0.05), 100 μM after 24 and 48 h (p < 0.05), and 200 μM after 24 h (p < 0.01) and 48 h (p < 0.0001) significantly decreased the cell viability. For the same compound, in data set [1], the “Long-Term Cytotoxicity” value is at least 0.5 µM, the “Short-Term Cytotoxicity” value is at least 50 µM and the “cytotoxic effects overall (MTT)” value is on record as “did not demonstrate significant cytotoxicity in either the short- or long-term doses tested”.
As to `C=CCc1ccc(O)c(OC)c1` [Eug, eugenol], in the data set with COX-2, the “COX-2 levels decreased by” value is given as 3.8 ×. Besides, the “Fold Change of COX-2” value in the data set on COX-2 was −3.8×. In the data set with COX-2 (vs TNF-α/IFN-γ group), the “COX-2 protein levels relative to GAPDH” value was “significantly reduced in the 10 μM of 4-AcO-DMT, 25 μM of Eug, 20 μM of 4-AcO-DMT combined with 25 μM of Eug, 40 μM of 4-AcO-DMT, and 40 μM of 4-AcO-DMT combined with 25 μM of Eug groups”. In addition, the “Most Effective Dose” value in the data set with COX-2 (dose most effective in lowering COX-2 (and IL-6) in TNF-α/IFN-γ-treated HSEIC) is 50 µM. Further, the “normalized COX-2 levels (COX-2/GAPDH)” value in the data set on COX-2 (setting [4]) is “Psi (40 μM), Cur (0.5 μM), and Eug (50 μM) significantly reduced COX-2 levels without cytotoxic effects”; in the data set with COX-2 (single ligands (Figure 6), vs TNF-α/IFN-γ group, doses given with the value, listed as eugenol), “remarkable efficacy in reducing the normalized COX-2 levels at all tested concentrations”. Besides, the “cell viability” value was 10 (p < 0.01), 100 (p < 0.05), 200 (p < 0.01), 400 (p < 0.001), and 800 (p < 0.0001) μM of eugenol decreased the cell viability in data set [1] (24 h exposure); “exposure to 50 (p < 0.001), 100 (p < 0.001), 200 (p < 0.0001), 400 (p < 0.0001), and 800 μM (p < 0.0001) for 48 h significantly reduced the cell viability” in data set [1] (48 h exposure); “only 200 (p < 0.001), 400 (p < 0.0001), and 800 μM (p < 0.0001) of eugenol significantly reduced the cell viability” in data set [1] (72 h exposure); “all doses reduced the cell viability” in data set [1] (96 h exposure). Further, the “Long-Term Cytotoxicity” value in data set [1] and in data set [1] (listed as Eugenol) was at least 10 µM in each case. For the same compound, the “Short-Term Cytotoxicity” value in data set [1] and in data set [1] (listed as Eugenol) was at least 10 µM each time. Further, in data set [1], the “cytotoxic effects overall (MTT)” value was “demonstrated both short-term and long-term cytotoxic effects”. The “LPS-induced IL-8 and TNF-α transcript levels” value in data set [2] is “significantly suppress the LPS-induced IL-8 and TNF-α transcript levels”. Also, the pathological scores result in data set [3] is “reduced the pathological scores”. Moreover, the “IL-6 protein levels relative to GAPDH” value in the data set on IL-6 is “IL-6 was upregulated in the 10 μM of 4-AcO-DMT, 25 μM of Eug, 10 μM of 4-AcO-DMT combined with 25 μM of Eug, and 20 μM of 4-AcO-DMT group”.
In the case of `O=C(c1ccc(F)cc1)C1CCN(CCn2c(=O)[nH]c3ccccc3c2=O)CC1` [Ket, ketanserin], the “Most Effective Dose” value in the data set on COX-2 was determined as 1 µM. Further, in the data set with COX-2 (setting [4]), the “normalized COX-2 levels (COX-2/GAPDH)” value is “Only 1 (p < 0.0001) and 10 μM (p < 0.01) of ketanserin significantly lowered COX-2 levels and 20 μM of ketanserin led to a significant increase in the normalized COX-2 levels and higher doses significantly increased COX-2 levels”.
In the case of `CC(=O)Oc1cccc2[nH]cc(CCN(C)C)c12` [4-AcO-DMT, 4-Acetoxy-N,N-dimethyltryptamine], the “Fold Change of COX-2” value with COX-2 is given as −1.5 ×. The “Most Effective Dose” value with COX-2 came to 20 µM. Moreover, the “COX-2 protein levels relative to GAPDH” value in the data set on COX-2 (vs TNF-α/IFN-γ group) was “only the combination of 20 μM of 4-AcO-DMT with 0.5 μM of Cap and 40 μM of 4-AcO-DMT significantly reduced the COX-2 levels; also recorded: significantly reduced in the 10 μM of 4-AcO-DMT, 25 μM of Eug, 20 μM of 4-AcO-DMT combined with 25 μM of Eug, 40 μM of 4-AcO-DMT, and 40 μM of 4-AcO-DMT combined with 25 μM of Eug groups”. In addition, the “normalized COX-2 levels (COX-2/GAPDH)” value with COX-2 (setting [4]) was “significant decrease in the relative COX-2 levels at the concentrations of 10 (p < 0.01), 20 (p < 0.0001), and 40 μM and 5 μM significantly increased relative COX-2 levels”. Besides, the “cell viability” value in data set [1] (24 h exposure) was “doses of 10, 20, 40, 80, and 160 μM significantly increased the cell viability”; in data set [1] (48 h exposure), “doses of 10, 20, 40, 80, and 160 μM significantly increased the cell viability”; in data set [1] (72 h exposure) it was 5 (p < 0.01), 10 (p < 0.0001), 20 (p < 0.01), 40, 80, and 100 μM (p < 0.0001) significantly increased the cell viability; in data set [1] (96 h exposure) it was “all doses significantly increased (p < 0.0001) the cell viability”. Moreover, the “IL-6 protein levels relative to GAPDH” value with IL-6 is “significantly reduced only in the 20 μM of 4-AcO-DMT combined with 25 μM of Eug, 40 μM of 4-AcO-DMT, and 40 μM of 4-AcO-DMT combined with 25 μM of Eug groups; also recorded: IL-6 was upregulated in the 10 μM of 4-AcO-DMT, 25 μM of Eug, 10 μM of 4-AcO-DMT combined with 25 μM of Eug, and 20 μM of 4-AcO-DMT group”.
